Data: PubChem BioAssay AID1963858 (Molecular Pharmacology Branch, DTP, NCI, 2024)
“And” between values parts separate entries of the source, which are not always exact repeats. Identical values can stand only once.

System: HOP-62 multicell spheroids with HUVEC/MSC, viability
Assay: Anticancer human tumor HOP-62 cell line growth inhibition [KRAS2];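 note: viability read after a week of compound exposure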;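 for viability, T/C: 100% = DMSO vehicle-treated spheroids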
Conditions: for viability, T/C: stronger effect = lower value
Source text: Multicellular complex tumor spheroid response to RAS pathway inhibitors in combination with a targeted agents in patient-derived cell lines with oncogenic KRAS variants from multiple cancer types
A high-throughput screen of multi-cell type tumor spheroids was designed to identify active combinations of targeted small molecules and KRAS pathway inhibitors. Complex spheroids include a stromal component modeled by human endothelial cells (HUVEC) and fibroblasts modeled by human mesenchymal stem cells (MSCs). The concentration ranges selected for each drug and investigational agent were based upon clinically achievable concentrations if the clinical Cmax of the agent was known.
Compounds. The drugs and investigational agents: BI-3406 (NSC825286), BAY-293 (NSC824723), batoprotafib (TNO155; NSC825523), sotorasib (AMG 510; NSC818433), MRTX1257 (NSC819558), elimusertib (BAY 1895344; NSC800525), molibresib (GSK525762; NSC774829), temuterkib (LY3214996; NSC803410), venetoclax (NSC766270), alisertib (NSC759677), olaparib (NSC753686), talazoparib (NSC767125), erdafitinib (NSC781556), ipatasertib (NSC767898), cabozantinib (NSC761068), nintedanib (NSC756659), abemaciclib (NSC768073), docetaxel (NSC628503), trametinib (NSC758246), and sapanisertib (NSC764658) were obtained from the National Cancer Institute (NCI) Developmental Therapeutics Program Chemical Repository. The FDA-approved anticancer drug set is available from the Developmental Therapeutics Program. […] The stock solutions were prepared in dimethyl sulfoxide (DMSO, Sigma-Aldrich, St. Louis, MO, cat. D2650) at 800-fold the tested concentration and stored at -70 degrees C prior to their use. All drugs and investigational agents were tested over a range starting from a high concentration at or near the clinical Cmax and decreasing in half-log increments. If the clinical Cmax for an agent had not been determined, the highest concentration tested was 10 microM.
Cell Culture. All cells were maintained in an incubator at 37 degrees C and 5% CO2 with 95% humidity. The PDC lines were cultured according to standard operating procedures established by the NCI PDMR (https://pdmr.cancer.gov/sops/default.htm). Briefly, all PDCs were thawed and cultured in Matrigel-coated flasks prepared with a working solution of 1X Ham's F-12 nutrient mix, without supplementation (Invitrogen, Waltham, MA, cat. 11765054), 100 U/mL penicillin-streptomycin (Invitrogen, cat. 15140122), and 2.5% Matrigel (Corning Inc., Corning, NY, cat. 354248) for the first three passages. All PDCs were cultured in complete DMEM/F-12 media containing advanced DMEM/F-12 (Invitrogen, cat. 12634028), 4.9% defined fetal bovine serum, heat inactivated (HyClone Laboratories Inc., Logan, UT, cat. SH30070.03HI), 389 ng/mL hydrocortisone (Sigma-Aldrich, cat. H4001), 9.7 ng/mL human EGF recombinant protein (Invitrogen, cat. PHG0313), 23.4 microg/mL adenine (Sigma-Aldrich, cat. A2786), 97.3 U/mL penicillin-streptomycin (Invitrogen, cat. 15140122), 1.9 mM L-glutamine (Invitrogen, cat. 25030081), and 9.7 microM Y-27632 dihydrochloride (Tocris Bioscience, Bristol, United Kingdom, cat. 1254). The PDCs were cultured in complete DMEM/F12 media without 9.7 microM Y-27632 dihydrochloride for at least two passages prior to the screen. The established cell line HOP-62 was cultured in RPMI 1640 medium, HEPES (Invitrogen, cat. 22400105) with 10% defined fetal bovine serum (HyClone Laboratories Inc., cat. SH30070.03) and 2 mM L-glutamine (Invitrogen, cat. 25030081). The pooled donor HUVEC were cultured in endothelial cell growth medium 2 (PromoCell, Heidelberg, Germany, cat. C-22011) and the hMSC were cultured in mesenchymal stem cell growth medium 2 (PromoCell, cat. C-28009). For all experiments, HUVEC and hMSC were used at passages </=5, while the malignant cell lines were used at passages </=15. […]

[1] = curve of first compound, second compound 0.1 µM
[2] = curve of first compound, second compound 0.316 µM
[3] = curve of first compound, second compound 1 µM
[4] = curve of first compound, second compound 3.16 µM
[5] = second compound 0.1 µM, first compound 0.00316 µM
[6] = second compound 0.1 µM, first compound 0.01 µM
[7] = second compound 0.1 µM, first compound 0.0316 µM
[8] = second compound 0.1 µM, first compound 0.1 µM
[9] = second compound 0.1 µM, first compound 0.316 µM
[10] = second compound 0.1 µM, first compound 1 µM
[11] = second compound 0.316 µM, first compound 0.00316 µM
[12] = second compound 0.316 µM, first compound 0.01 µM
[13] = second compound 0.316 µM, first compound 0.0316 µM
[14] = second compound 0.316 µM, first compound 0.1 µM
[15] = second compound 0.316 µM, first compound 0.316 µM
[16] = second compound 0.316 µM, first compound 1 µM
[17] = second compound 1 µM, first compound 0.00316 µM
[18] = second compound 1 µM, first compound 0.01 µM
[19] = second compound 1 µM, first compound 0.0316 µM
[20] = second compound 1 µM, first compound 0.1 µM
[21] = second compound 1 µM, first compound 0.316 µM
[22] = second compound 1 µM, first compound 1 µM
[23] = second compound 3.16 µM, first compound 0.00316 µM
[24] = second compound 3.16 µM, first compound 0.01 µM
[25] = second compound 3.16 µM, first compound 0.0316 µM
[26] = second compound 3.16 µM, first compound 0.1 µM
[27] = second compound 3.16 µM, first compound 0.316 µM
[28] = second compound 3.16 µM, first compound 1 µM
[29] = curve of first compound, second compound 10 µM
[30] = second compound 10 µM, first compound 0.0316 µM
[31] = second compound 10 µM, first compound 0.1 µM
[32] = second compound 10 µM, first compound 0.316 µM
[33] = second compound 10 µM, first compound 1 µM

Molecule CCN1CCN(Cc2ccc(Nc3ncc(F)c(-c4cc(F)c5nc(C)n(C(C)C)c5c4)n3)nc2)CC1 + C=CC(=O)N1CCN(c2nc(OCC3CCCN3C)nc3c2CCN(c2cccc4cccc(C)c24)C3)CC1CC#N has an IC50 (curve of first compound, second compound 0.0316 µM) of 422 nM, an IC50 [1] of 58.2 nM and an IC50 [2] of 17.2 nM. For the same molecule, the IC50 [3] was less than 3.16 nM, the IC50 [4] was less than 3.16 nM and the viability, T/C (second compound 0.0316 µM, first compound 0.00316 µM) was 91.3%. It also gave a viability, T/C (second compound 0.0316 µM, first compound 0.01 µM) of 83.8%, a viability, T/C (second compound 0.0316 µM, first compound 0.0316 µM) of 64.1% and a viability, T/C (second compound 0.0316 µM, first compound 0.1 µM) of 65%. The viability, T/C (second compound 0.0316 µM, first compound 0.316 µM) was 52.4%, the viability, T/C (second compound 0.0316 µM, first compound 1 µM) was 42.9% and the viability, T/C [5] was 65.6%. The viability, T/C [6] was 59.4%, the viability, T/C [7] was 54.7% and the viability, T/C [8] was 43.8%. For the same molecule, the viability, T/C [9] was 42.9%, the viability, T/C [10] was 31.6% and the viability, T/C [11] was 57.3%. The viability, T/C [12] was 51.4%, the viability, T/C [13] was 51.3% and the viability, T/C [14] was 38.4%. It also gave a viability, T/C [15] of 34.1%, a viability, T/C [16] of 30.1% and a viability, T/C [17] of 39.4%. For the same molecule, the viability, T/C [18] was 33.8%, the viability, T/C [19] was 37.3% and the viability, T/C [20] was 37.1%. The viability, T/C [21] was 37.8%, the viability, T/C [22] was 23.8% and the viability, T/C [23] was 0.71%. It also gave a viability, T/C [24] of 1.27%, a viability, T/C [25] of 1.14% and a viability, T/C [26] of 0.26%. The viability, T/C [27] was 0.17% and the viability, T/C [28] was 0.19%.

Cn1nccc1Nc1nccc(-c2cc3c(s2)C(C)(C)N(CCN2CCOCC2)C3=O)n1 + CNCc1ccccc1-c1csc(C(C)Nc2nc(C)nc3cc(OC)c(OC)cc23)c1 gave an IC50 [1] of 1220 nM, an IC50 [2] of 859 nM and an IC50 [3] of 646 nM. For the same molecule, the IC50 [4] was less than 31.6 nM, the IC50 [29] was less than 31.6 nM and the viability, T/C [7] was 110%. It also gave a viability, T/C [8] of 102%, a viability, T/C [9] of 92.8% and a viability, T/C [10] of 52.5%. The viability, T/C (second compound 0.1 µM, first compound 3.16 µM) was 34.6%, the viability, T/C (second compound 0.1 µM, first compound 10 µM) was 28.3% and the viability, T/C [13] was 104%. For the same molecule, the viability, T/C [14] was 98.3%, the viability, T/C [15] was 77.1% and the viability, T/C [16] was 47.5%. The viability, T/C (second compound 0.316 µM, first compound 3.16 µM) was 25.3%, the viability, T/C (second compound 0.316 µM, first compound 10 µM) was 26.9% and the viability, T/C [19] was 101%. It also gave a viability, T/C [20] of 99%, a viability, T/C [21] of 68.3% and a viability, T/C [22] of 39.6%. It also gave a viability, T/C (second compound 1 µM, first compound 3.16 µM) of 27.6%, a viability, T/C (second compound 1 µM, first compound 10 µM) of 27.1% and a viability, T/C [25] of 1.01%. For the same molecule, the viability, T/C [26] was 2.12%, the viability, T/C [27] was 0.23% and the viability, T/C [28] was 0.16%. For the same molecule, the viability, T/C (second compound 3.16 µM, first compound 3.16 µM) was 0.1%, the viability, T/C (second compound 3.16 µM, first compound 10 µM) was 0.18% and the viability, T/C [30] was 0.19%. For the same molecule, the viability, T/C [31] was 0.19%, the viability, T/C [32] was 0.2% and the viability, T/C [33] was 0.2%. For the same molecule, the viability, T/C (second compound 10 µM, first compound 3.16 µM) was 0.22% and the viability, T/C (second compound 10 µM, first compound 10 µM) was 0.23%.

COc1cc2nc(C)nc(NC(C)c3cc(N)cc(C(F)(F)F)c3)c2cc1OC1CCOC1 (stereo unspecified) was tested, and the IC50 (compound alone, run of 07/12/2021) was > 10000 nM and 9670 nM.

Work on CCN1CCN(Cc2ccc(Nc3ncc(F)c(-c4cc(F)c5nc(C)n(C(C)C)c5c4)n3)nc2)CC1 + COc1cc2nc(C)nc(NC(C)c3cc(N)cc(C(F)(F)F)c3)c2cc1OC1CCOC1 yielded an IC50 [1] of 911 nM, an IC50 [2] of 979 nM and an IC50 [3] of 613 nM. For the same molecule, the IC50 [4] was 23.2 nM, the IC50 [29] was less than 3.16 nM and the viability, T/C [5] was 102%. The viability, T/C [6] was 97%, the viability, T/C [7] was 84.2% and the viability, T/C [8] was 79.4%. For the same molecule, the viability, T/C [9] was 73.8%, the viability, T/C [10] was 45.6% and the viability, T/C [11] was 101%. The viability, T/C [12] was 93.5%, the viability, T/C [13] was 85.6% and the viability, T/C [14] was 69.9%. It also gave a viability, T/C [15] of 63.2%, a viability, T/C [16] of 49.2% and a viability, T/C [17] of 80.8%. It also gave a viability, T/C [18] of 74.4%, a viability, T/C [19] of 67.6% and a viability, T/C [20] of 69.9%. It also gave a viability, T/C [21] of 49.6%, a viability, T/C [22] of 47.8% and a viability, T/C [23] of 55.5%. For the same molecule, the viability, T/C [24] was 52.9%, the viability, T/C [25] was 50.6% and the viability, T/C [26] was 41.8%. The viability, T/C [27] was 42.4%, the viability, T/C [28] was 34.8% and the viability, T/C (second compound 10 µM, first compound 0.00316 µM) was 49.9%. The viability, T/C (second compound 10 µM, first compound 0.01 µM) was 32.2%, the viability, T/C [30] was 24.4% and the viability, T/C [31] was 21.9%. For the same molecule, the viability, T/C [32] was 18.5% and the viability, T/C [33] was 0.89%.

C=CC(=O)N1CCN(c2nc(OCC3CCCN3C)nc3c2CCN(c2cccc4cccc(C)c24)C3)CC1CC#N (stereo unspecified) was tested, and the viability, T/C (compound 1 µM) was 35.5% [middle of 17 runs] and the IC50 (compound alone, run of 07/26/2021) was 622 nM [middle of 6 runs].

CC1COCCN1c1cc(-c2ccnn2C)c2ccnc(-c3ccn[nH]3)c2n1 (stereo unspecified) was tested, and the viability, T/C (compound 0.316 µM) was 16.9% [middle of 5 runs], the viability, T/C (compound 1 µM) was 16.8% [middle of 5 runs] and the viability, T/C (compound 3.16 µM) was 17.2% [middle of 5 runs].
